Source: patent US20170233346A1, “CRYSTALLINE ANTI-TRICHOPHYTON AGENTS AND PREPARATION PROCESS THEREOF” (MEIJI SEIKA PHARMA CO., LTD., priority 2014, published 2017)

Assay: Crystal form stability test (preservation, then powder X-ray diffraction and content)
Format: physicochemical
Protocol: Using high-speed imaging plate X-ray diffraction system (R-AXIS VII) manufactured by Rigaku Corporation, X-ray diffraction data of the crystals of the compound of the formula (1) were measured at −180° C. with a CuK α radiation (50 kV, 90 mA, λ=1.5418 Å). A sample was filled in a glass capillary having an inner diameter of 0.7 mm. The diffraction images were collected under the conditions a camera length of 300 mm, an oscillation angle of 40°, and an exposure time of 45 minutes. A contour integration treatment of the diffraction image was carried out by an R-AXIS display software available from Rigaku Corporation (integration range: 45 to 135°). The maximum value of the obtained integrated intensity was made 100, relative intensities of the respective integral intensities were calculated, and plotting them based on the diffraction angle 20 to prepare a diffraction pattern. With regard to the crystals of the compounds of the formula (1), these were preserved under the following mentioned temperature and humidity conditions, and then powder X-ray diffractions were measured. […] Term: 12 months Preservation condition: 25±2° C./[…] Packaging form: Polyethylene double bag/fiber drum Term: 6 months Preservation condition: 40±2° C./75±5% RH* *: RH: relative humidity Packaging form: Polyethylene double bag/fiber drum

[1] = Test 1, 25° C./60% RH, at starting
[2] = Test 1, 25° C./60% RH, preservation period 3 months
[3] = Test 1, 25° C./60% RH, preservation period 6 months
[4] = Test 1, 25° C./60% RH, preservation period 9 months
[5] = Test 1, 25° C./60% RH, preservation period 12 months
[6] = Test 2, 40° C./75% RH, preservation period 1 month
[7] = Test 2, 40° C./75% RH, preservation period 3 months
[8] = Test 2, 40° C./75% RH, preservation period 6 months

Compound: Cc1ccc(-n2nc(C)cc2C)c(O)c1 [formula (1), 2-(3,5-dimethyl-1H-pyrazol-1-yl)-5-methylphenol]
- Content (%) [1]: (99.7%)*
- Crystal form (powder X-ray diffraction) [1]: Form A
- Content (%) [2]: (99.9%)*
- Crystal form (powder X-ray diffraction) [2]: Form A
- Content (%) [3]: (98.9%)*
- Crystal form (powder X-ray diffraction) [3]: Form A
- Content (%) [4]: (99.9%)*
- Crystal form (powder X-ray diffraction) [4]: Form A
- Content (%) [5]: (99.0%)*
- Crystal form (powder X-ray diffraction) [5]: Form A
- Change in crystal form after preservation (Test 1 and Test 2, either of the measurement times): no change in crystal form was observed
- Content (%) [6]: (100.3%)*
- Crystal form (powder X-ray diffraction) [6]: Form A
- Content (%) [7]: (100.6%)*
- Crystal form (powder X-ray diffraction) [7]: Form A
- Content (%) [8]: (100.4%)*
- Crystal form (powder X-ray diffraction) [8]: Form A
- Period over which Form A crystals were extremely stable and high purity (even under the accelerated conditions): ≥ 6 months
